A short description of the data set: Solubility of cinacalcet in water as a function of pH. In kind it is physicochemical. The protocol: Calcium receptor-active compounds are known in the art. One example of a calcium receptor-active compound is cinacalcet HCl, which is described, for example, in U.S. Pat. No. 6,001,884. Such calcium receptor-active compounds may be insoluble or sparingly soluble in water, particularly in their non-ionized state. […] However, when the pH is about 1, the solubility decreases to about 0.1 mg/mL. Such limited solubility can reduce the number of formulation and delivery options available for these calcium receptor-active compounds. Limited water solubility can also result in low bioavailability of the compounds.

For one compound, solubility results are on record in US7829595B2, “Rapid dissolution formulation of a calcium receptor-active compound” (Amgen Inc., priority 2003, dated 2010).

Structures are written as SMILES. In brackets after ≈: the same amount, converted by molar mass. Read-outs that look alike come from different tables or passages of the source.

As for `C[C@@H](NCCCc1cccc(C(F)(F)F)c1)c1cccc2ccccc12` [cinacalcet, N-(1-(R)-(1-naphthyl)ethyl]-3-[3-(trifluoromethyl)phenyl]-1-aminopropane], the solubility (as a rule, the concentration that dissolves in the medium under given conditions) (aqueous buffer, pH ranges from about 3 to about 5, read-out: solubility) was ~1600 µg/mL (≈ 4480 µM); the solubility (pH 1, simulated gastric fluid, pH about 1, read-out: solubility) is ~100 µg/mL (≈ 280 µM); the solubility (pH 7, water, neutral pH, read-out: solubility in water) is < 1 µg/mL.
